The results in this text go back to patent US11014911B2, “CDK2 inhibitors” (Pfizer Inc., priority 2019, dated 2021).

Test [1] deals with CDK2/Cyclin E1 full length (Homo sapiens (Human), UniProt P24941). In words: CDK2/Cyclin E1 full length mobility shift assay. The test is classed as biochemical.
The target in a further test is GSK3β (H350L) (Homo sapiens (Human), UniProt P49841). The settings on record: read-out: GSK3β Ki.

A word on the Ki: it is a measure of affinity in units of concentration, obtained from inhibition or displacement.

Molecules are shown by their SMILES.

Chain of GSK3β (H350L) (P49841 whole entry, stated change not applied): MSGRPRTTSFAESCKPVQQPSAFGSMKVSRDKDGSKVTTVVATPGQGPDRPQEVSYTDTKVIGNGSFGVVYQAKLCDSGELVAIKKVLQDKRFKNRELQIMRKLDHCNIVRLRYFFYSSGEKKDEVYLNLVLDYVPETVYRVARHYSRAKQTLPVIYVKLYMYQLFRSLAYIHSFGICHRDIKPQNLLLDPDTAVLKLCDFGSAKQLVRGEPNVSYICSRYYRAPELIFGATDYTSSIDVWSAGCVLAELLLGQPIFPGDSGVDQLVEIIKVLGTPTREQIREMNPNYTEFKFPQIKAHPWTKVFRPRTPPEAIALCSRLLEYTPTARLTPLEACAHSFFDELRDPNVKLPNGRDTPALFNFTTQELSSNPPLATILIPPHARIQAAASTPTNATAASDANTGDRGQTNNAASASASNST
Protocol for GSK3β (H350L): The assay was initiated with the addition of ATP, following 15 minutes pre-incubation of enzyme and inhibitor at room temperature in the reaction mixture. The reaction was stopped after 30 minutes at room temperature by the addition of 50 μL of 80 mM EDTA.

As for `CCCNC(=O)O[C@@H]1CC[C@H](c2cc(NC(=O)Cc3ccc(OC)cn3)n[nH]2)C1` (stereo in doubt) [Example 187, (1R,3S)-3-(3-{[(5-methoxypyridin-2-yl)acetyl]amino}-1H-pyrazol-5-yl)cyclopentyl propylcarbamate], the figures for the inhibition constant (Ki) (in test [1]; on GSK3β (H350L)) were 4.59 nM and 23.9 nM, respectively.

In the case of `CCCNC(=O)O[C@@H]1CC[C@H](c2cc(NC(=O)Cc3ccnc(OC)c3)[nH]n2)C1` [Example 1, (1R,3S)-3-(3-{[(2-methoxypyridin-4-yl)acetyl]amino}-1H-pyrazol-5-yl)cyclopentyl propylcarbamate], the Ki on GSK3β (H350L) worked out at 26.2 nM.

In the case of `CCNC(=O)O[C@@H]1CC[C@H](c2cc(NC(=O)Cc3ccc4c(cnn4C)c3)n[nH]2)C1` [Example 3, (1R,3S)-3-(3-{[(1-methyl-1H-indazol-5-yl)acetyl]amino}-1H-pyrazol-5-yl)cyclopentyl ethylcarbamate], the Ki in test [1] stood at 0.34 nM; on GSK3β (H350L), 10 nM.

Regarding `CC[C@H](C)NC(=O)O[C@@H]1CC[C@H](c2cc(NC(=O)c3cnnn3C)n[nH]2)C1` [Example 4, (1R,3S)-3-(3-{[(1-methyl-1H-1,2,3-triazol-5-yl)carbonyl]amino}-1H-pyrazol-5-yl)cyclopentyl (2S)-butan-2-ylcarbamate], the Ki stood at 0.1 nM in test [1] and 110 nM on GSK3β (H350L). `Cc1cnc(CC(=O)Nc2cc([C@H]3CC[C@@H](OC(=O)NC4(C)CC4)C3)[nH]n2)o1` [Example 5, (1R,3S)-3-(3-{[(5-methyl-1,3-oxazol-2-yl)acetyl]amino}-1H-pyrazol-5-yl)cyclopentyl (1-methylcyclopropyl)carbamate]: the Ki in test [1] was 0.4 nM; at GSK3β (H350L), 39.4 nM. The corresponding values for `Cc1cnc(CC(=O)Nc2cc([C@H]3CC[C@@H](OC(=O)NC(C)(C)C)C3)[nH]n2)o1` [Example 11, (1R,3S)-3-(3-{[(5-methyl-1,3-oxazol-2-yl)acetyl]amino}-1H-pyrazol-5-yl)cyclopentyl tert-butylcarbamate] are 0.32 nM and 36.2 nM. Regarding `Cc1cc(CC(=O)Nc2cc([C@H]3CC[C@@H](OC(=O)N4CCC4(C)C)C3)[nH]n2)on1` [Example 12, (1R,3S)-3-(3-{[(3-methyl-1,2-oxazol-5-yl)acetyl]amino}-1H-pyrazol-5-yl)cyclopentyl 2,2-dimethylazetidine-1-carboxylate], the Ki came to 0.13 nM in test [1] and 4.86 nM at GSK3β (H350L). As to `CCCNC(=O)O[C@H]1CC[C@@H](c2cc(NC(=O)Cc3ccnc(OC)c3)n[nH]2)C1` [Example 19], the Ki on GSK3β (H350L) stood at 20.8 nM.

As to `C[C@H]1CCCN1C(=O)O[C@@H]1CC[C@H](c2cc(NC(=O)Cc3ccn(C)n3)n[nH]2)C1` [Example 140], at GSK3β (H350L), the inhibition constant (Ki) is 15.3 nM. Consider `COc1ccc(CC(=O)Nc2cc([C@@H]3CC[C@H](OC(=O)N4CCC4(C)C)C3)[nH]n2)cn1` [Example 145], for which the Ki at GSK3β (H350L) was determined as 0.95 nM. Take `CC[C@H](C)NC(=O)O[C@@H]1CC[C@H](c2cc(NC(=O)Cc3ccccc3S(C)(=O)=O)n[nH]2)C1` [Example 370, (1R,3S)-3-[3-({[2-(methylsulfonyl)phenyl]acetyl}amino)-1H-pyrazol-5-yl]cyclopentyl (2S)-butan-2-ylcarbamate]: the Ki on GSK3β (H350L) is 50.8 nM. As to `COc1cc(CC(=O)Nc2cc([C@H]3CC[C@@H](OC(=O)N4C[C@H](O)[C@H]4C)C3)[nH]n2)ccn1` [Example 613, (1R,3S)-3-(3-{[(2-methoxypyridin-4-yl)acetyl]amino}-1H-pyrazol-5-yl)cyclopentyl (2R,3S)-3-hydroxy-2-methylazetidine-1-carboxylate], in test [1], the Ki amounted to 2.98 nM. In the case of `COc1ccc(CC(=O)Nc2cc([C@H]3CC[C@@H](OC(=O)N4C[C@@H](O)[C@@H]4C)C3)[nH]n2)cn1` [Example 615, (1R,3S)-3-(3-{[(6-methoxypyridin-3-yl)acetyl]amino}-1H-pyrazol-5-yl)cyclopentyl (2S,3R)-3-hydroxy-2-methylazetidine-1-carboxylate], in test [1], the Ki amounted to 1.99 nM. Take `COc1ccc(CC(=O)Nc2cc([C@H]3CC[C@@H](OC(=O)N4C[C@H](OC)[C@H]4C)C3)[nH]n2)cn1` [Example 620, (1R,3S)-3-(3-{[(6-methoxypyridin-3-yl)acetyl]amino}-1H-pyrazol-5-yl)cyclopentyl (2R,3S)-3-methoxy-2-methylazetidine-1-carboxylate]: the Ki in test [1] worked out at 3.91 nM. As for `Cc1cc(CC(=O)Nc2cc([C@H]3CC[C@@H](OC(=O)N4C[C@@](C)(O)[C@@H]4C)C3)[nH]n2)on1` [Example 622, (1R,3S)-3-(3-{[(3-methyl-1,2-oxazol-5-yl)acetyl]amino}-1H-pyrazol-5-yl)cyclopentyl (2S,3R)-3-hydroxy-2,3-dimethylazetidine-1-carboxylate], the Ki in test [1] was found to be 4 nM. Still for that read-out and setting: the figure for `COc1ccc(CC(=O)Nc2cc([C@@H]3CC[C@H](OC(=O)N4C[C@@](C)(O)[C@@H]4C)C3)[nH]n2)cn1` [Example 626, (1S,3R)-3-(3-{[(6-methoxypyridin-3-yl)acetyl]amino}-1H-pyrazol-5-yl)cyclopentyl (2S,3R)-3-hydroxy-2,3-dimethylazetidine-1-carboxylate] is 4.73 nM; for `C[C@H]1CCCN1C(=O)O[C@@H]1CC[C@H](c2cc(NC(=O)Cc3ccccn3)n[nH]2)C1` [Example 630, (1R,3S)-3-{3-[(pyridin-2-ylacetyl)amino]-1H-pyrazol-5-yl}cyclopentyl (2S)-2-methylpyrrolidine-1-carboxylate] it is 1.43 nM. As for `C[C@H]1CCCN1C(=O)O[C@@H]1CC[C@H](c2cc(NC(=O)Cc3ccn(C)n3)n[nH]2)C1` [Example 631, (1R,3S)-3-(3-{[(1-methyl-1H-pyrazol-3-yl)acetyl]amino}-1H-pyrazol-5-yl)cyclopentyl (2S)-2-methylpyrrolidine-1-carboxylate], the Ki on GSK3β (H350L) was determined as 11.8 nM. For the compound `Cc1cc(CC(=O)Nc2cc([C@H]3CC[C@@H](OC(=O)N4CCC[C@H]4C)C3)[nH]n2)on1` [Example 633, (1R,3S)-3-(3-{[(3-methyl-1,2-oxazol-5-yl)acetyl]amino}-1H-pyrazol-5-yl)cyclopentyl (2R)-2-methylpyrrolidine-1-carboxylate], the Ki in test [1] amounted to 2.11 nM.

Regarding `Cc1coc(CC(=O)Nc2cc([C@H]3CC[C@@H](OC(=O)N4CCC[C@@H]4C)C3)[nH]n2)n1` [Example 636, (1R,3S)-3-(3-{[(4-methyl-1,3-oxazol-2-yl)acetyl]amino}-1H-pyrazol-5-yl)cyclopentyl (2S)-2-methylpyrrolidine-1-carboxylate], in test [1], the Ki came to 0.83 nM. For the compound `Cc1csc(CC(=O)Nc2cc([C@H]3CC[C@@H](OC(=O)N4CCC[C@@H]4C)C3)[nH]n2)n1` [Example 637, (1R,3S)-3-(3-{[(4-methyl-1,3-thiazol-2-yl)acetyl]amino}-1H-pyrazol-5-yl)cyclopentyl (2S)-2-methylpyrrolidine-1-carboxylate], the Ki in test [1] was 1.47 nM.

In the case of `Cc1cc(CC(=O)Nc2cc([C@H]3CC[C@@H](OC(=O)N4CCCC[C@@H]4C)C3)[nH]n2)on1` [Example 640, (1R,3S)-3-(3-{[(3-methyl-1,2-oxazol-5-yl)acetyl]amino}-1H-pyrazol-5-yl)cyclopentyl (2S)-2-methylpiperidine-1-carboxylate], the Ki in test [1] was 0.48 nM. On the same count and under the same terms, to `Cc1cc(CC(=O)Nc2cc([C@H]3CC[C@@H](OC(=O)N4CCOC[C@H]4C)C3)[nH]n2)on1` [Example 643, (1R,3S)-3-(3-{[(3-methyl-1,2-oxazol-5-yl)acetyl]amino}-1H-pyrazol-5-yl)cyclopentyl (3R)-3-methylmorpholine-4-carboxylate] belongs 1.84 nM.
